As a reminder, the inhibition is the drop in the measured response relative to a control, in per cent.

The record followed here is ChEMBL document CHEMBL5390237, “Discovery of Selective Histone Deacetylase 1 and 2 Inhibitors: Screening of a Focused Library Constructed by Click Chemistry, Kinetic Binding Analysis, and Biological Evaluation” (J Med Chem, 2023).

The structures appear in SMILES notation.

The target in the assay is Histone deacetylase 2 (Homo sapiens, UniProt Q92769). The assay is described as follows: Inhibition of full-length recombinant human C-terminal GST tagged HDAC2 expressed in Sf9 insect cells using aminoluciferin peptide substrate at 100 nM preincubated for 3 hrs followed by substrate addition and measured after 30 mins by HDAC-Glo I/II chemiluminescence assay. The conditions noted are these: time 3.5 hrs.
Sequence of Histone deacetylase 2 (Q92769 whole entry): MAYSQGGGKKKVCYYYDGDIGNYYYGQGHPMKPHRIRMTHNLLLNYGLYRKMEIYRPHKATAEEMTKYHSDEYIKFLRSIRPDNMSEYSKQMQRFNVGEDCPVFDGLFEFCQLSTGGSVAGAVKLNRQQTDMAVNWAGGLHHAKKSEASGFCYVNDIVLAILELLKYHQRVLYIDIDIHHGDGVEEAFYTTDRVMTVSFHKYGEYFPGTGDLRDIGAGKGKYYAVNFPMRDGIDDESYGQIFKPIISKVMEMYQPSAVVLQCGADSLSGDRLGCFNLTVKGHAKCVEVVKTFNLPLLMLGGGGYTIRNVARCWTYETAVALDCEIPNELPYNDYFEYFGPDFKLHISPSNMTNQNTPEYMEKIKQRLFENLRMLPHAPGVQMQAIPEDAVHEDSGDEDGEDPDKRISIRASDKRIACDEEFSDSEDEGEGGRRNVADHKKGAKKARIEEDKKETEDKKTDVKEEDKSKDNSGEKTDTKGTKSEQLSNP
As for `Nc1ccc(-c2cccs2)cc1NC(=O)c1ccc(-c2cn(CCCCCC(=O)O)nn2)cc1`, the inhibition was 9%. For `Cc1cccc(CCn2cc(-c3ccc(C(=O)Nc4cc(-c5cccs5)ccc4N)s3)nn2)c1`, the inhibition was found to be 20%.

`Nc1ccc(-c2ccsc2)cc1NC(=O)CCc1cn(CCc2c[nH]c3ccccc23)nn1`: the inhibition worked out at 22%. For `Nc1ccc(-c2cccs2)cc1NC(=O)c1cccc(-c2cn(CCc3ccccc3Cl)nn2)c1`, the inhibition stood at 0%. With `Nc1ccc(-c2cccs2)cc1NC(=O)CCc1cn(CCCCCC(=O)O)nn1`, the inhibition was 6%. Take `Nc1ccc(-c2cccs2)cc1NC(=O)c1ccc(-c2cn(CCCCCCCC(=O)O)nn2)cc1`: the inhibition came to 0%. Under `Nc1ccc(-c2cccs2)cc1NC(=O)c1ccc(-c2cn(Cc3ccc(-c4ccccc4)cc3)nn2)cc1` stands 0%; under `Nc1ccc(-c2cccnc2)cc1NC(=O)CCc1cn(Cc2cccc(-c3ccccc3)c2)nn1`, 0%; under `Nc1ccc(-c2ccsc2)cc1NC(=O)CCc1cn(CC23CC4CC(CC(C4)C2)C3)nn1`, 0%. With `Nc1ccc(-c2cccs2)cc1NC(=O)CCc1cn(Cc2ccc(Oc3ccccc3)cc2)nn1`, the inhibition is 6%. Under `Nc1ccc(-c2cccs2)cc1NC(=O)c1cn(Cc2ccc(-c3ccccc3)cc2)nn1` stands 0%; under `Nc1ccc(-c2cccs2)cc1NC(=O)CCc1cn(-c2ccc(Br)cc2)nn1`, 11%; under `Nc1ccc(-c2cccs2)cc1NC(=O)c1cccc(-c2cn(-c3ccccc3-c3ccccc3)nn2)c1`, 0%.

Turning to `Nc1ccc(-c2cccs2)cc1NC(=O)c1ccc(-c2cn(CC3CCCCC3)nn2)cc1`, the inhibition was 0%.

For the compound `Nc1ccc(-c2cccs2)cc1NC(=O)c1cn(CCc2ccccc2[N+](=O)[O-])nn1`, the inhibition is 19%.

For the compound `Nc1ccc(-c2cccs2)cc1NC(=O)c1cn(C[S+]([O-])c2ccccc2)nn1` (centres undefined), the inhibition was 8%. As to `COc1ccc(CCn2cc(CCC(=O)Nc3cc(-c4cccnc4)ccc3N)nn2)cc1`, the inhibition is 21%. With `COc1ccccc1CCn1cc(C(=O)Nc2cc(-c3ccccc3)ccc2N)nn1`, the inhibition is 0%. Take `Nc1ccc(-c2ccsc2)cc1NC(=O)c1cn(Cc2ccc3ccccc3n2)nn1`: the inhibition stood at 19%.

On to `CCc1ccc(Cn2cc(CCC(=O)Nc3cc(-c4ccccc4)ccc3N)nn2)cc1`, for which the inhibition was 1%. In the case of `Cc1csc(CCn2cc(CCC(=O)Nc3cc(-c4ccsc4)ccc3N)nn2)n1`, the inhibition was 39%. Consider `Nc1ccc(-c2ccsc2)cc1NC(=O)CCc1cn(Cc2ccc(Oc3ccccc3)cc2)nn1`, for which the inhibition was 0%. Take `COc1ccc(CCn2cc(C(=O)Nc3cc(-c4ccsc4)ccc3N)nn2)cc1`: the inhibition was found to be 6%. Under `Nc1ccc(-c2cccs2)cc1NC(=O)c1cn(CCC2CCCCC2)nn1` stands 3%; under `Nc1ccc(-c2ccc(F)cc2)cc1NC(=O)CCc1cn(CCCCC(=O)O)nn1`, 0%; under `Nc1ccc(-c2ccc(F)cc2)cc1NC(=O)c1cn(CCc2cccc([N+](=O)[O-])c2)nn1`, 20%. In the case of `Nc1ccc(-c2cccnc2)cc1NC(=O)CCc1cn(Cc2cccc(C(=O)O)c2)nn1`, the inhibition stood at 0%.

As for `CCc1ccc(Cn2cc(CCC(=O)Nc3cc(-c4cccs4)ccc3N)nn2)cc1`, the inhibition was 10%. `Nc1ccc(-c2ccccc2)cc1NC(=O)CCc1cn(CCc2c[nH]c3ccccc23)nn1`: the inhibition was 20%. For the compound `Nc1ccc(-c2cccs2)cc1NC(=O)c1ccc(-c2cn(Cc3ccc(OC(F)(F)F)cc3)nn2)cc1`, the inhibition was found to be 5%. `Nc1ccc(-c2cccs2)cc1NC(=O)CCc1cn(CCc2ccsc2)nn1`: the inhibition came out at 13%. Under `Nc1ccc(-c2ccsc2)cc1NC(=O)c1cn(-c2ccccc2-c2ccccc2)nn1` stands 0%; under `Nc1ccc(-c2ccsc2)cc1NC(=O)c1cn(CC2CCCCC2)nn1`, 0%. Under `Nc1ccc(-c2ccc(F)cc2)cc1NC(=O)c1cn(CCc2cccc(Cl)c2)nn1` stands 0%. The figure for `Nc1ccc(-n2cc(CCC(=O)Nc3cc(-c4cccnc4)ccc3N)nn2)cc1` is 5%.

As to `Nc1ccc(-c2cccs2)cc1NC(=O)c1cn(-c2ccc([N+](=O)[O-])cc2)nn1`, the inhibition turned out to be 0%. For `Nc1ccc(-c2cccs2)cc1NC(=O)c1cccc(-c2cn(CCN3CCOCC3)nn2)c1`, the inhibition came out at 48%.

As to `COc1ccc(CCn2cc(CCC(=O)Nc3cc(-c4ccccc4)ccc3N)nn2)cc1`, the inhibition was determined as 17%. The figure for `COc1ccc(-n2cc(C(=O)Nc3cc(-c4ccc(F)cc4)ccc3N)nn2)cc1` is 16%; for `Nc1ccc(-c2ccc(F)cc2)cc1NC(=O)c1cn(CC23CC4CC(CC(C4)C2)C3)nn1` it is 0%; for `COc1ccc(-n2cc(-c3cccc(C(=O)Nc4cc(-c5cccs5)ccc4N)c3)nn2)cc1` it is 14%.

For `Nc1ccc(-c2cccs2)cc1NC(=O)CCc1cn(CCCCCc2ccccc2)nn1`, the inhibition was determined as 7%. Consider `Nc1ccc(-c2cccnc2)cc1NC(=O)CCc1cn(CCc2ccccc2Cl)nn1`, for which the inhibition was 9%. Under `Nc1ccc(-c2cccs2)cc1NC(=O)c1ccc(-c2cn(CCCCC(=O)O)nn2)s1` stands 51%; under `Nc1ccc(-c2cccs2)cc1NC(=O)c1cccc(-c2cn(CCc3ccccc3[N+](=O)[O-])nn2)c1`, 0%; under `Nc1ccc(-c2cccs2)cc1NC(=O)c1cccc(-c2cn(CCC3CCCC3)nn2)c1`, 0%.

Turning to `COc1ccc(Cn2cc(-c3cccc(C(=O)Nc4cc(-c5cccs5)ccc4N)c3)nn2)cc1`, the inhibition is 0%. On to `Nc1ccc(-c2ccsc2)cc1NC(=O)c1cn(Cc2cccc(-c3ccccc3)c2)nn1`, for which the inhibition turned out to be 0%. The figure for `Nc1ccc(-c2cccs2)cc1NC(=O)CCc1cn(Cc2ccc(C(=O)O)cc2)nn1` is 31%.

For `Nc1ccc(-c2cccs2)cc1NC(=O)c1ccc(-c2cn(-c3ccc(Br)cc3)nn2)s1`, the inhibition stood at 0%. `Nc1ccc(-c2cccs2)cc1NC(=O)c1cccc(-c2cn(CCc3ccccn3)nn2)c1`: the inhibition is 33%.

Turning to `Nc1ccc(-c2ccsc2)cc1NC(=O)CCc1cn(Cc2ccc(C(=O)O)cc2)nn1`, the inhibition came out at 31%. As for `Nc1ccc(-c2ccc(F)cc2)cc1NC(=O)CCc1cn(CC23CC4CC(CC(C4)C2)C3)nn1`, the inhibition amounted to 0%. Under `Nc1ccc(-c2cccs2)cc1NC(=O)c1ccc(-c2cn(Cc3cc4ccccc4s3)nn2)s1` stands 0%. Turning to `Nc1ccc(-c2ccsc2)cc1NC(=O)CCc1cn(CCCCC(=O)O)nn1`, the inhibition was determined as 0%. Under `Nc1ccc(-c2cccs2)cc1NC(=O)c1cccc(-c2cn(-c3ccc([N+](=O)[O-])cc3)nn2)c1` stands 5%; under `Nc1ccc(-c2ccsc2)cc1NC(=O)c1cn(CCc2cccc(F)c2)nn1`, 0%.

Take `Nc1ccc(-c2ccccc2)cc1NC(=O)CCc1cn(CCN2CCc3ccccc3C2)nn1`: the inhibition is 11%. For `Nc1ccc(-c2ccsc2)cc1NC(=O)CCc1cn(CCc2ccc([N+](=O)[O-])cc2)nn1`, the inhibition stood at 20%. Consider `Nc1ccc(-c2cccs2)cc1NC(=O)c1cn(CCc2ccccn2)nn1`, for which the inhibition is 0%.

For the compound `Nc1ccc(-c2ccccc2)cc1NC(=O)c1cn(CCCCCC(=O)O)nn1`, the inhibition came to 0%. Under `Nc1ccc(-c2ccccc2)cc1NC(=O)CCc1cn(Cc2ccc(C(=O)O)cc2)nn1` stands 27%; under `Nc1ccc(-c2cccs2)cc1NC(=O)CCc1cn(CCc2cccc3ccccc23)nn1`, 0%; under `Nc1ccc(-n2cc(-c3ccc(C(=O)Nc4cc(-c5cccs5)ccc4N)s3)nn2)cc1`, 44%.

For `Nc1ccc(-c2cccs2)cc1NC(=O)CCc1cn(CCc2cccc([N+](=O)[O-])c2)nn1`, the inhibition came out at 27%.

Turning to `Nc1ccc(-c2ccccc2)cc1NC(=O)c1cn(CCCCCCCC(=O)O)nn1`, the inhibition stood at 0%. Under `Nc1ccc(-c2ccc(F)cc2)cc1NC(=O)CCc1cn(-c2ccc(O)cc2)nn1` stands 3%; under `Nc1ccc(-c2ccsc2)cc1NC(=O)CCc1cn(Cc2cccc(C(=O)O)c2)nn1`, 0%.

As for `Nc1ccc(-c2ccc(F)cc2)cc1NC(=O)c1cn(-c2cccc3ccccc23)nn1`, the inhibition came out at 4%. The figure for `Nc1ccc(-c2cccnc2)cc1NC(=O)CCc1cn(CCc2ccc(Cl)cc2)nn1` is 7%; for `Nc1ccc(-c2ccc(F)cc2)cc1NC(=O)c1cn(-c2ccc(Br)cc2)nn1` it is 10%. Under `Nc1ccc(-c2cccs2)cc1NC(=O)c1cn(CCc2ccccc2)nn1` stands 9%; under `Nc1ccc(-c2ccsc2)cc1NC(=O)c1cn(CCc2c[nH]c3ccccc23)nn1`, 6%. Regarding `Nc1ccc(-c2cccs2)cc1NC(=O)c1ccc(-c2cn(-c3ccc([N+](=O)[O-])cc3)nn2)s1`, the inhibition is 7%.

On to `Nc1ccc(-c2cccs2)cc1NC(=O)CCc1cn(CS(=O)(=O)c2ccccc2)nn1`, for which the inhibition worked out at 15%. Turning to `Nc1ccc(-c2cccnc2)cc1NC(=O)CCc1cn(CCCc2ccccc2)nn1`, the inhibition amounted to 15%. The figure for `COc1ccccc1CCn1cc(CCC(=O)Nc2cc(-c3ccsc3)ccc2N)nn1` is 20%. Take `COc1ccc(CCn2cc(CCC(=O)Nc3cc(-c4ccc(F)cc4)ccc3N)nn2)cc1`: the inhibition amounted to 34%. The figure for `Nc1ccc(-c2ccc(F)cc2)cc1NC(=O)c1cn(CCC2CCCCC2)nn1` is 5%. With `Nc1ccc(-c2ccc(F)cc2)cc1NC(=O)CCc1cn(CCc2cccc(F)c2)nn1`, the inhibition amounted to 15%. Under `Nc1ccc(-c2ccc(F)cc2)cc1NC(=O)CCc1cn(Cc2ccc3ccccc3c2)nn1` stands 15%; under `Nc1ccc(-c2ccc(F)cc2)cc1NC(=O)c1cn(Cc2ccc3ccccc3n2)nn1`, 27%. Under `Nc1ccc(-c2cccs2)cc1NC(=O)CCc1cn(Cc2cccc(C(=O)O)c2)nn1` stands 3%.

Turning to `COc1ccccc1CCn1cc(C(=O)Nc2cc(-c3cccs3)ccc2N)nn1`, the inhibition was 6%.
